US7396839B2, “Crystalline forms of gatifloxacin” (Teva Pharmaceuticals USA, Inc., priority 2002, dated 2008)

Legend:
[1] = heating of the crystalline form at about 50° C.; assay type: physicochemical; conditions: heating at about 50° C.
[2] = storage at ambient temperature and pressure (crystalline form conversion); assay type: physicochemical
[3] = compared with the hemihydrate; cited from earlier work
[4] = among the forms of U.S. Pat. No. 6,413,969; cited from earlier work
[5] = room temperature; among the forms of U.S. Pat. No. 6,413,969; cited from earlier work
[6] = prolonged (e.g. 2 months) storage at ambient temperature and pressure

COc1c(N2CCNC(C)C2)c(F)cc2c(=O)c(C(=O)O)cn(C3CC3)c12 (racemic) [form P, (±) 1-cyclopropyl-6-fluoro-1,4-dihydro-8-methoxy-7-(3-methyl-1-piperazinyl)-4-oxo-3-quinolinecarboxylic acid]
crystalline form after heating [1]: results in gatifloxacin form T1 | crystalline form after prolonged storage ([2]; prolonged (e.g. 1 month) storage at ambient temperature and pressure): converts to gatifloxacin sesquihydrate

COc1c(N2CCNC(C)C2)c(F)cc2c(=O)c(C(=O)O)cn(C3CC3)c12 (racemic) [form M, (±) 1-cyclopropyl-6-fluoro-1,4-dihydro-8-methoxy-7-(3-methyl-1-piperazinyl)-4-oxo-3-quinolinecarboxylic acid]
crystalline form after prolonged storage [2, 6]: converts to form T2RP (hemihydrate)

COc1c(N2CCNC(C)C2)c(F)cc2c(=O)c(C(=O)O)cn(C3CC3)c12 (stereo not shown) [sesquihydrate, gatifloxacin]
stability in manufacturing [3]: more stable

COc1c(N2CCNC(C)C2)c(F)cc2c(=O)c(C(=O)O)cn(C3CC3)c12 (stereo not shown) [pentahydrate, gatifloxacin]
thermodynamic stability [4]: most thermodynamically stable form | aqueous solubility [5]: lowest

COc1c(N2CCNC(C)C2)c(F)cc2c(=O)c(C(=O)O)cn(C3CC3)c12 (racemic) [form L, (±) 1-cyclopropyl-6-fluoro-1,4-dihydro-8-methoxy-7-(3-methyl-1-piperazinyl)-4-oxo-3-quinolinecarboxylic acid]
crystalline form after prolonged storage [2, 6]: converts to form Ω
